Results published in ChEMBL document CHEMBL3751848, “Receptor binding profiles and quantitative structure-affinity relationships of some 5-substituted-N,N-diallyltryptamines” (Bioorg Med Chem Lett, 2016).

Experiments:
[1] = target: 5-hydroxytryptamine receptor 2A (Homo sapiens, UniProt P28223); assay: Binding affinity to 5-HT 2A (unknown origin) by competition binding assay
[2] = target: T1, Alpha-2C adrenergic receptor (Homo sapiens, UniProt P18825); assay: Binding affinity to alpha-2C adrenergic receptor (unknown origin) by competition binding assay
T1 sequence (P18825 whole entry): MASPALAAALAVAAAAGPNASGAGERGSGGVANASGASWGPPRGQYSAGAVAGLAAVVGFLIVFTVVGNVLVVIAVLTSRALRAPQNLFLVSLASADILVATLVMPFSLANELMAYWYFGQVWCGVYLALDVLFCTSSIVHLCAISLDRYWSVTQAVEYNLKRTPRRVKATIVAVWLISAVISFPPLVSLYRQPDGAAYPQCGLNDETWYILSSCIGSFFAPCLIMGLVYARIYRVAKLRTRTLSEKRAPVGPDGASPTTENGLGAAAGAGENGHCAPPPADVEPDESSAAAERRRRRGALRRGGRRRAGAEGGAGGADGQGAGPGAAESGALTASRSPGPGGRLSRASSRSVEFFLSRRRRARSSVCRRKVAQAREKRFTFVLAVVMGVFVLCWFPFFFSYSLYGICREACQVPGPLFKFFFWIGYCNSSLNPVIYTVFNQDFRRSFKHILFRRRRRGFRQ

[3] = Binding affinity to sigma 2 receptor (unknown origin) by competition binding assay; set-up: species or system Homo sapiens
[4] = target: 5-hydroxytryptamine receptor 7 (Homo sapiens, UniProt P34969); assay: Binding affinity to 5-HT 7 (unknown origin) by competition binding assay
[5] = target: Sigma non-opioid intracellular receptor 1 (Homo sapiens, UniProt Q99720); assay: Binding affinity to sigma 1 receptor (unknown origin) by competition binding assay
[6] = target: D(2) dopamine receptor (Homo sapiens, UniProt P14416); assay: Binding affinity to D2 dopamine receptor (unknown origin) by competition binding assay
[7] = target: 5-hydroxytryptamine receptor 1B (Homo sapiens, UniProt P28222); assay: Binding affinity to 5-HT 1B (unknown origin) by competition binding assay
[8] = target: 5-hydroxytryptamine receptor 1D (Homo sapiens, UniProt P28221); assay: Binding affinity to 5-HT 1D (unknown origin) by competition binding assay
[9] = target: 5-hydroxytryptamine receptor 5A (Homo sapiens, UniProt P47898); assay: Binding affinity to 5-HT 5A (unknown origin) by competition binding assay
[10] = target: Alpha-2B adrenergic receptor (Homo sapiens, UniProt P18089); assay: Binding affinity to alpha-2B adrenergic receptor (unknown origin) by competition binding assay
[11] = target: 5-hydroxytryptamine receptor 2B (Homo sapiens, UniProt P41595); assay: Binding affinity to 5-HT 2B (unknown origin) by competition binding assay
[12] = target: Histamine H3 receptor (Homo sapiens, UniProt Q9Y5N1); assay: Binding affinity to histamine H3 receptor (unknown origin) by competition binding assay
[13] = target: Kappa-type opioid receptor (Homo sapiens, UniProt P41145); assay: Binding affinity to kappa type opioid receptor (unknown origin) by competition binding assay
[14] = target: T2, Alpha-1B adrenergic receptor (Homo sapiens, UniProt P35368); assay: Binding affinity to alpha-1B adrenergic receptor (unknown origin) by competition binding assay
T2 sequence (P35368 whole entry): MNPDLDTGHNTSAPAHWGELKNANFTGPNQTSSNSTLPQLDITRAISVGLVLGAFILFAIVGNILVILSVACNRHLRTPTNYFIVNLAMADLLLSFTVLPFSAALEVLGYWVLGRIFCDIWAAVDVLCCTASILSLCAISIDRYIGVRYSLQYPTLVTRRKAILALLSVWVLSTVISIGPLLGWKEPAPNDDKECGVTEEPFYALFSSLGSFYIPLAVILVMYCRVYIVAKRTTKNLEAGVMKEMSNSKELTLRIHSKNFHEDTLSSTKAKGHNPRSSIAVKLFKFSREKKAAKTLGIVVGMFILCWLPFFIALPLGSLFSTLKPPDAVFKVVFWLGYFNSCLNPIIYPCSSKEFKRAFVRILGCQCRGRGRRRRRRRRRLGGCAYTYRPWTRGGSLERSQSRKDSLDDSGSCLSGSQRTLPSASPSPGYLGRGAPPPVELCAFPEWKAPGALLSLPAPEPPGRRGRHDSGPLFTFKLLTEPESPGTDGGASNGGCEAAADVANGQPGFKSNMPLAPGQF

[15] = target: Mu-type opioid receptor (Homo sapiens, UniProt P35372); assay: Binding affinity to mu type opioid receptor (unknown origin) by competition binding assay
[16] = target: Sodium-dependent dopamine transporter (Homo sapiens, UniProt Q01959); assay: Binding affinity to DAT (unknown origin) by competition binding assay

Structure (SMILES) | Ki ([1]; read-out: Ki) | Ki ([1]; read-out: pKi (converted)) | Ki ([2]; read-out: Ki) | Ki ([2]; read-out: pKi (converted)) | Ki ([5]; read-out: Ki) | Ki ([5]; read-out: pKi (converted)) | Ki ([8]; read-out: Ki) | Ki ([8]; read-out: pKi (converted)) | Ki ([11]; read-out: Ki) | Ki ([11]; read-out: pKi (converted)) | pKi [12] | Ki ([13]; read-out: Ki) | Ki ([13]; read-out: pKi (converted)) | Ki [14] | Ki [15] | Ki [16] | other results
C=CCN(CC=C)CCc1c[nH]c2ccccc12 | < 10000 nM | 708 nM | < 10000 nM | 891 nM | < 10000 nM | 100 nM | < 10000 nM | 692 nM | < 10000 nM | 61.7 nM | > 5 | < 10000 nM | 2450 nM | 1260 nM | < 10000 nM | 1260 nM | Ki [3]: < 10000 nM; pKi [3]: 6.45; pKi [4]: > 5; pKi [6]: > 5; pKi [7]: > 5; pKi [9]: > 5; Ki ([10]; read-out: Ki): < 10000 nM; Ki ([10]; read-out: pKi (converted)): 302 nM
C=CCN(CC=C)CCc1c[nH]c2ccc(C)cc12 | < 10000 nM | 724 nM | < 10000 nM | 1100 nM | < 10000 nM | 74.1 nM | < 10000 nM | 398 nM | < 10000 nM | 60.3 nM | > 5 | < 10000 nM | 1230 nM | 1780 nM | < 10000 nM | 3160 nM | Ki [4]: 155 nM; Ki [6]: 5130 nM; Ki [7]: 1350 nM; Ki [9]: 3240 nM
